# Test system: RORγt
# Experiment: RORγt nuclear translocation in IL-6/23-stimulated human neutrophils (nuclear extract western blot, confocal)
# Format: cell-based
# Procedure: Neutrophils were isolated from peripheral blood of healthy donors. Peripheral blood was incubated in 3% Dextran, and neutrophils isolated by Ficoll gradient centrifugation (Fisher Scientific), with neutrophil purity determined by staining with Wright-Giemsa.
# Murine or human neutrophils were suspended at a density of 10^6 cells/ml and incubated with […] of recombinant mouse or human IL-6 and 2 μg/ml IL-23 in RPMI, and the cells were maintained for 1-3 h at 37° C. in 5% CO2. Various inhibitors were used for assessing STAT3 activation. For STAT3, neutrophils were treated with either the STAT3-SH2 inhibitor, Stattic (20 μM) obtained from Tocris, or the JAK-1, 2 inhibitor, INC424, (aka Ruxolitinib; 20 μM (Selleck BioChem)). For the determination of RORγt-dependent signaling, SR1001 (20 μM; Sigma) was used, which inhibits RORγt binding to the IL-17 promoter site. All inhibitors were added to neutrophils 2 h prior to recombinant IL-6 and IL-23 stimulation. […]
# Neutrophils collected from primed or naïve C57BL/6 mice or unstimulated murine or human neutrophils were incubated with recombinant IL-6 and IL-23 for 60 min. […] Total protein was quantified using the BCA method, denatured with 2× Laemmli buffer (Sigma) and heated to 95° C. for 5 minutes. […] Ten μg of total protein was analyzed on a 12% SDS polyacrylamide gel, and transferred to nitrocellulose. […]
structure (smiles),measurement,setting,value
O=[N+]([O-])c1ccc2c(c1)S(=O)(=O)C=C2 [Stattic],RORγt localisation by confocal microscopy,,only detected in the cytoplasm
same,RORγt in nuclear extracts,"western blot, FIG. 5B",no longer detectable

# — patent US9814720B2, “Compositions and methods of inhibiting IL-17 expression of neutrophils” (priority 2014, dated 2017)
